Nine compounds from patent US8183262B2, “Pyridine derivatives as mGluR2 antagonists” (Hoffmann-La Roche Inc., priority 2007, dated 2012) can be followed below.

The structures appear in SMILES notation.

One series deals with T1, rat mGlu2 receptor (Rattus norvegicus, UniProt P31421).
T1 construct: expressed in transfected cells; membranes prepared
The series can be described thus: [3H]-LY354740 binding on mGlu2 transfected CHO cell membranes. The following applies: inhibition of 10 nM [3H]-LY354740 binding, membranes of CHO cells transfected with rat mGlu2, room temperature, 1 hour. The method in brief: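 Membranes from CHO cells stably expressing rat mGlu2 (25 μg protein/ml) incubated 1 hour at room temperature with 10 nM [3H]-LY354740 and test compound in 50 mM Tris-HCl, 2 mM MgCl2, pH 7.4. Non-specific binding defined with 10 μM DCG IV; bound radioactivity counted after filtration. IC50 from four-parameter logistic fit.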

T1 sequence (P31421 19-872): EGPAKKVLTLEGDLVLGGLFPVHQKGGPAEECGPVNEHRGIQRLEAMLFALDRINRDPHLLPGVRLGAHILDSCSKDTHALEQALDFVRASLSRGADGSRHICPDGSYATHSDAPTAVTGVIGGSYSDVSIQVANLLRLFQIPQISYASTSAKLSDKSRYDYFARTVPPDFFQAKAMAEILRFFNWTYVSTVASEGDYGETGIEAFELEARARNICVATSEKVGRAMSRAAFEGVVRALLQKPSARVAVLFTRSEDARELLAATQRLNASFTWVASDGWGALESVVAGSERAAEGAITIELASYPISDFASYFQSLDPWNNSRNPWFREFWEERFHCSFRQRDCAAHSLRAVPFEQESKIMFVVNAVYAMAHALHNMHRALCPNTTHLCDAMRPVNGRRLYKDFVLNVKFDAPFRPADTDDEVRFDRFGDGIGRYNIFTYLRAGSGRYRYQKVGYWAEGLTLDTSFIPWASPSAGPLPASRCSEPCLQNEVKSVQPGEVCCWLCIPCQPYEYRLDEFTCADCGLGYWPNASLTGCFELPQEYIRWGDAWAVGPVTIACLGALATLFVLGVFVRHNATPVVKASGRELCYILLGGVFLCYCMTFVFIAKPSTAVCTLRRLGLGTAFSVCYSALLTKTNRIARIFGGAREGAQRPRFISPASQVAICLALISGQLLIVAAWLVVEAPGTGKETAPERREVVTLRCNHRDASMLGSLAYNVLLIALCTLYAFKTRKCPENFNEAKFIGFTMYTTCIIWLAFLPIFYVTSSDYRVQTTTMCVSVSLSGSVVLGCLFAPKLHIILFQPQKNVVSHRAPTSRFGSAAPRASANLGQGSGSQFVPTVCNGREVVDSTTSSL

Broadly, the Ki is the dissociation constant of the complex between target and ligand, obtained from inhibition or displacement. Read a high Ki as weaker binding. As usually defined, the melting point is the temperature of the solid-liquid transition. Compound `FC(F)(F)c1ccc(-c2cc(-c3cccc(-c4cccnc4)c3)nc(C3CC3)c2)cc1` [Example 63, 2-Cyclopropyl-6-(3-pyridin-3-yl-phenyl)-4-(4-trifluoromethyl-phenyl)-pyridine] came in with a melting point of 100 to 104 °C. The compound further gave a Ki at rat mGlu2 receptor of 29 nM.
`NS(=O)(=O)c1cnc(-c2cn(-c3cc(-c4ccc(C(F)(F)F)cc4)cc(C(F)(F)F)n3)cn2)s1` [Example 313, 2-{1-[6-Trifluoromethyl-4-(4-trifluoromethyl-phenyl)-pyridin-2-yl]-1H-imidazol-4-yl}-thiazole-5-sulfonic acid amide] returned a melting point above 250 °C. For the same compound, the inhibition constant (Ki) at rat mGlu2 receptor was found to be 18 nM.
`FC(F)(F)c1ccc(-c2cc(C(F)(F)F)cc(-c3cccc(-c4cccnc4)c3)n2)cc1` [Example 59, 2-(3-Pyridin-3-yl-phenyl)-4-trifluoromethyl-6-(4-trifluoromethyl-phenyl)-pyridine] displayed a melting point of 164 to 166 °C. In addition, the Ki on rat mGlu2 receptor is 58.3 nM.
As to `Cc1cc(-c2ccc(C(F)(F)F)cc2)cc(-c2ccnc(-c3ccnc(N)c3)n2)n1` [Example 360, 4-{4-[6-Methyl-4-(4-trifluoromethyl-phenyl)-pyridin-2-yl]-pyrimidin-2-yl}-pyridin-2-ylamine], the melting point came to 217 °C. This compound also came in with a Ki on rat mGlu2 receptor of 5 nM.
Compound `Cc1cc(-c2ccc(C(F)(F)F)cc2)nc(-c2cccc(-c3cncc(S(N)(=O)=O)c3)c2)c1` [Example 275, 5-{3-[4-Methyl-6-(4-trifluoromethyl-phenyl)-pyridin-2-yl]-phenyl}-pyridine-3-sulfonic acid amide] yielded a melting point of 217 °C. The inhibition constant (Ki) at rat mGlu2 receptor was 87 nM.
Turning to `Cc1cc(-c2ccc(C(F)(F)F)cc2)cc(-c2cccc(-c3ccc(S(N)(=O)=O)s3)c2)n1` [Example 271, 5-{3-[6-Methyl-4-(4-trifluoromethyl-phenyl)-pyridin-2-yl]-phenyl}-thiophene-2-sulfonic acid amide], the melting point is 215 °C. On rat mGlu2 receptor, this compound yielded a Ki of 3 nM.
The like results for `Nc1ccc(-c2cn(-c3cc(C(F)(F)F)cc(-c4ccc(C(F)(F)F)cc4)n3)cn2)cn1` [Example 65, 5-{1-[4-Trifluoromethyl-6-(4-trifluoromethyl-phenyl)-pyridin-2-yl]-1H-imidazol-4-yl}-pyridin-2-ylamine] were, in that order, 245 to 247 °C and 6 nM.
Take `CSc1cccc(-c2cccc(-c3cc(-c4ccc(C(F)(F)F)cc4)cc(C)n3)n2)c1` [Example 357, 6-Methyl-6′-(3-methylsulfanyl-phenyl)-4-(4-trifluoromethyl-phenyl)-[2,2′]bipyridinyl]: the melting point stood at 144 °C. Further, the Ki at rat mGlu2 receptor stood at 39 nM.
Turning to `Cc1cc(-c2ccc(C(F)(F)F)cc2)cc(-c2cccc(-c3cccc(S(C)(=O)=O)c3)c2)n1` [Example 353, 2-(3′-Methanesulfonyl-biphenyl-3-yl)-6-methyl-4-(4-trifluoromethyl-phenyl)-pyridine], the melting point is 110 °C (dec.). Besides, on rat mGlu2 receptor, the inhibitory constant (Ki) turned out to be 3 nM.
